Data published in patent US8815857B2 (Boehringer Ingelheim International GmbH, priority 2011, dated 2014).
Converted amounts (≈) assume the structure as drawn.

Legend:
[1] = biological target: T1, Recombinant human soluble guanylate cyclase (sGC), alpha 1 / beta 1 subunits, heme-free (Homo sapiens, UniProt Q02108+Q02153); test: Molecular assay: cGMP formation by heme-free recombinant sGC (CisBio cGMP detection kit); type: biochemical; conditions: 300 pM heme-free sGC, 37° C., 60 min, cGMP readout; read-out: EC50 nM, Activity of Compounds in Molecular Assay
T1 construct: histidine tag (C); made in house; host or cells: Sf9 insect cells (baculovirus coinfection)
T1 sequence (Q02108 1-690 partner): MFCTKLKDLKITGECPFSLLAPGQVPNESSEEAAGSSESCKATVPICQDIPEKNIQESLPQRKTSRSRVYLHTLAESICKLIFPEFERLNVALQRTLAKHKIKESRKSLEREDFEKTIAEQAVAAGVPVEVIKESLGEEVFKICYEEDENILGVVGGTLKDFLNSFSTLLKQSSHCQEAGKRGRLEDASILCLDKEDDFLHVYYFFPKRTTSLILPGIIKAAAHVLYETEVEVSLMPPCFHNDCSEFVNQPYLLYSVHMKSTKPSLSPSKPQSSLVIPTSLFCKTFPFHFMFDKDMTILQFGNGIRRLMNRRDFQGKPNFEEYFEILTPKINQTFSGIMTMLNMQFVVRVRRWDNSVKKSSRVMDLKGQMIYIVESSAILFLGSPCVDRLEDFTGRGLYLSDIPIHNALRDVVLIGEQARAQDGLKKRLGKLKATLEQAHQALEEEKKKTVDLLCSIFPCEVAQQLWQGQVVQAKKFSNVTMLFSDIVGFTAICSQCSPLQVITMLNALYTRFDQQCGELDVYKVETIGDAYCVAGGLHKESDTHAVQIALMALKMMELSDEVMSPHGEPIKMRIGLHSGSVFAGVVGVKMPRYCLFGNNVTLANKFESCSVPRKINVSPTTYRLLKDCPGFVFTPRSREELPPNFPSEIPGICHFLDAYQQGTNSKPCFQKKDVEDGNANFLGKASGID
T1 sequence (Q02153 1-619): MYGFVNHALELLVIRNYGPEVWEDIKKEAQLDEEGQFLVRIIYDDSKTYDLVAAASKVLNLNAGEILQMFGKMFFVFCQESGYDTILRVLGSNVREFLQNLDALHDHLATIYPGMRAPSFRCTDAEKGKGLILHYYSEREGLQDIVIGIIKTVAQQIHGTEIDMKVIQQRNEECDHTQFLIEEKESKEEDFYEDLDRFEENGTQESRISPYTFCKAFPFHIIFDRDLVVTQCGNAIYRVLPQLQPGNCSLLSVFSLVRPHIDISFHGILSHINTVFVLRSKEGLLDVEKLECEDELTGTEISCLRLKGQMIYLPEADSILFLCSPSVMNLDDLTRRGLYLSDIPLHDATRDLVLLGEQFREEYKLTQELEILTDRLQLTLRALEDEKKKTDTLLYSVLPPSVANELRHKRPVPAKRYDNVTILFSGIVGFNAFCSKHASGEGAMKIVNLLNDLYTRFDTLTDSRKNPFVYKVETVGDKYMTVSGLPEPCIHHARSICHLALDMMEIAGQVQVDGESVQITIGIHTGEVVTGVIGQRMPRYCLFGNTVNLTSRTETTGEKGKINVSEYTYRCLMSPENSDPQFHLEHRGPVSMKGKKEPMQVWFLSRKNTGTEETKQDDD
Method: Recombinant human soluble guanylate cyclase (sGC) is purified from Sf9 insect cells coinfected with baculoviruses expressing the alpha 1 or beta 1 subunit of sGC, both with a C-terminal histidine tag. Heme-free sGC is prepared by treating cell lysate with a final concentration of 0.5% Tween 20 prior to purification on a nickel affinity column.
sGC catalyzes the conversion of guanosine-5′-triphosphate (GTP) to cyclic guanosine monophosphate (cGMP). The activity of sGC is measured in vitro using the commercially available CisBio cGMP detection kit (catalog # 62GM2PEB) in a 384 well format. In brief, 300 pM heme-free sGC is incubated in reaction buffer (50 mM MOPS pH 6.8, 0.2 N KOH, 50 mM NaCl, 2 mM MgCl2, 0.1% BSA, 1.25 mM IBMX, 0.25 mM TCEP, 50 nM GTP) in the presence or absence of dilutions of test compounds diluted in DMSO (final concentration of 1%) in a volume of 10 microL at 37° C. for 60 min. Undiluted reaction products or an 80-fold dilution of reaction products (10 microL of either) prepared in reaction buffer containing 0.2 mM TCEP and 10 mM EDTA is mixed with 5 microL of d2-cGMP plus 5 microL of Eu^3+ cryptate-labeled anti-cGMP, each diluted in buffer containing 0.1 M KPO4 pH 7.5, 0.4 M KF, 20 mM EDTA, 0.2% BSA. After a one h incubation at room temperature in the dark, the mixtures are quantified on an EnVision plate reader (PerkinElmer) according to manufacturer instructions (laser excitation 337 nm, emission 620 and 665 nm). The ratio at each compound concentration is converted to nM cGMP using the linear portion of a calibration curve. Log compound concentration is plotted against combined undiluted and diluted nM cGMP values to determine the EC50 for each curve.

[2] = Assessment of solubility: HT solubility in pION buffer, UV spectrophotometry; conditions: for solubility: kinetic from dmso stock
Method: Solubility is measured by the following method.
DMSO stock samples at 10 mM concentration are prepared. […] The samples are pierced and 100 ul of thawed samples are transferred into the PCR plate for analysis. Each sample is run in duplicate at each pH (pH 4.5 and 7.4). Up to 95 samples can be run in replicate at 2 pH's+1 DMSO (blank).
Preparation of pH 4.5 and 7.4 Buffers:
• pH 4.5 buffer:—To 12.5 of system solution (pION)qs to 500 mL of distilled water (pH 2.85-2.90); adjust the pH to pH 4.5 with 0.5 N NaOH. • pH 7.4 buffer: To 12.5 of system solution (pION)qs to 500 mL of distilled water (pH 2.85-2.90); adjust the pH to pH 7.4 with 0.5N NaOH. […] Procedure: Preparation of UV Blank Plate:
75 ul of buffer (pH 7.4 or pH 4.5) is added to UV plate followed by addition of 70 ul of N-propanol. The solution is mixed and the blank spectrum is read using spectrophotometer.
Preparation of Reference UV Plate:
10 ul of each stock sample (including DMSO control) is added to 190 ul of N-propanol to prepare the reference stock plate. Reference stock samples are mixed and 5 ul of each stock sample is added to UV blank plate after it is read spectrophotometrically. The reference stock sample is mixed with blank solution in UV plate and the reference spectrum is read using UV spectrophotometer.
Preparation of Sample for Incubation:
Solubility at pH 7.4:6 ul of each stock sample (including DMSO control) is added to the storage plate containing 600 ul of pH 7.4 buffer, mixed and incubated for 16-19 h. The plate is sealed well during the incubation process. The DMSO content in the sample is 1.0%. The concentration in deep well plates is 100 uM
6 ul of each stock sample (including DMSO control) is added to the deep well plate containing 600 ul of pH 4.5 buffer, mixed and incubated for 16-19 h. The plate is sealed well during the incubation process. The DMSO content in the sample is 1.0%. The concentration in deep well plates is 100 uM
Preparation of Sample UV Plate:
At the end of the incubation period, 100 uL of sample from the storage plate is vacuum filtered using a filter plate. This step wets the filters and the filtrate is discarded. Another 200 ul of the sample from the deep well plate is vacuum filtered using the same filter block but a clean filter plate. 75 ul of the filtrate from the filter plate is transferred to a UV sample plate. 75 ul of N-propanol is added to this UV plate. The solution is mixed and the spectrum is read using the UV spectrophotometer.
The spectra collected for blank, reference and sample from 250-498 nm is analyzed using pION software. If the sample precipitates out, the solubility is reported as XX μg/ml.

[3] = pION system solution buffer, pH 4.5, pH 4.5, aqueous buffer, Solubility (pH 4.5), pH 4.5 buffer, 16-19 h incubation, 1.0% DMSO
[4] = pION system solution buffer, pH 7.4, pH 7.4, aqueous buffer, Solubility (pH 7.4), pH 7.4 buffer, 16-19 h incubation, 1.0% DMSO
[5] = pH 4.5 buffer, 16-19 h incubation, 1.0% DMSO

SMILES	EC50 [1]	solubility [2, 3]	solubility [2, 4]	other results
Cc1cc(CN2CCS(=O)(=O)CC2)ccc1COc1ccccc1-c1csc(N2CC3CCC(C2)C3C(=O)O)n1 (stereo not shown) [Compound 120]	18 nM			
Cc1cc(CN2CCC(C(N)=O)CC2)ccc1COc1c(C)cccc1-c1csc(N2CCC(C(=O)O)CC2)n1 [Compound 93]		> 56 µg/mL	> 56 µg/mL	
Cc1ccc(OCc2ccc(CN3CCC(O)CC3)cc2C)c(-c2csc(N3CCC(C(=O)O)CC3)n2)c1 [Compound 175]		> 55 µg/mL	> 55 µg/mL	
Cc1ccc(OCc2ccc(C(=O)N3CCCCC3)cc2C#N)c(-c2csc(N3CCC(C(=O)O)CC3)n2)c1 [Compound 65]	58 nM		23 µg/mL (≈ 42.2 µM)	Solubility (pH 4.5) [2, 5]: 0.1 μg/mL
Cc1cc(CN2CCC(O)CC2)ccc1COc1ccc(C#N)cc1-c1csc(N2CCC(C(=O)O)CC2)n1 [Compound 170]		37 µg/mL (≈ 67.7 µM)	24 µg/mL (≈ 43.9 µM)	
COCCCN(C)C(=O)c1ccc(COc2ccc(C)cc2-c2csc(N3CCC(C(=O)O)CC3)n2)c(C)c1 [Compound 162]	71 nM			
COCCN(C)Cc1ccc(COc2ccc(C)cc2-c2csc(N3CCC(C(=O)O)CC3)n2)c(C)c1 [Compound 27]		> 63 µg/mL	> 63 µg/mL	
Cc1ccc(OCc2ccc(CN3CCOCC3)cc2C)c(-c2csc(N3CCC[C@@H](C(=O)O)C3)n2)c1 [Compound 19]		> 52 µg/mL	> 52 µg/mL	
Cc1cc(CN2CCS(=O)(=O)CC2)ccc1COc1ccc(Cl)cc1-c1csc(N2CC3C(C2)C3C(=O)O)n1 (stereo not shown) [Compound 128]		0.45 µg/mL (≈ 0.765 µM)	> 58 µg/mL	
Cc1ccc(OCc2ccc(C(=O)N(C)CC3CCCCC3)cc2C)c(-c2csc(N3CCC(C(=O)O)CC3)n2)c1 [Compound 161]	91 nM			
Cc1cc(CN2CCCCC2)ccc1COc1ccc(C#N)cc1-c1csc(N2CCC(C(=O)O)CC2)n1 [Compound 169]		> 57 µg/mL	> 57 µg/mL	
COCCCNC(=O)c1ccc(COc2ccc(C)cc2-c2csc(N3CCC(C(=O)O)CC3)n2)c(C)c1 [Compound 159]	1900 nM			
Cc1ccc(OCc2ccc(CN3CCS(=O)(=O)CC3)cc2C)c(-c2csc(N3CCC(C(=O)O)CC3C)n2)c1 (stereo not shown) [Compound 124]	30 nM			
Cc1ccc(OCc2ccc(C(=O)N(C)C3CCCCC3)cc2C)c(-c2csc(N3CCC(C(=O)O)CC3)n2)c1 [Compound 164]	55 nM			
Cc1cc(CN2CCS(=O)(=O)CC2)ccc1COc1ccc(F)cc1-c1csc(N2CCC(C(=O)O)C(C(F)(F)F)C2)n1 (stereo not shown) [Compound 155]		0.3 µg/mL (≈ 0.468 µM)	> 63 µg/mL	
Cc1ccc(OCc2ccc(C(=O)NC3CCCCC3)cc2C)c(-c2csc(N3CCC(C(=O)O)CC3)n2)c1 [Compound 163]	750 nM			
Cc1ccc(OCc2ccc(C(=O)N3CCCC3)cc2C)c(-c2csc(N3CCC(C(=O)O)CC3)n2)c1 [Compound 7]			42 µg/mL (≈ 80.8 µM)	Solubility (pH 4.5) [2, 5]: >62 μg/mL
Cc1ccc(OCc2ccc(CN3CCCCC3)cc2C)c(-c2csc(N3CCC(C(=O)O)CC3)n2)c1 [Compound 18]		> 63 µg/mL	> 63 µg/mL	
Cc1cc(CN2CCS(=O)(=O)CC2)ccc1COc1ccc(C#N)cc1-c1csc(N2CC3C(C2)C3C(=O)O)n1 (stereo not shown) [Compound 116]	1100 nM			
Cc1cc(CN2CCCCC2)ccc1COc1c(C)cccc1-c1csc(N2CCC(C(=O)O)CC2)n1 [Compound 16]		> 51 µg/mL	33 µg/mL (≈ 63.5 µM)	
Cc1cc(CN2CCS(=O)(=O)CC2)ccc1COc1ccc(Cl)cc1-c1csc(N2CCC(C(=O)O)C(C)C2)n1 (stereo not shown) [Compound 144]	54 nM			
Cc1ccc(OCc2ccc(C(=O)N(C)CCN(C)C)cc2C)c(-c2csc(N3CCC(C(=O)O)CC3)n2)c1 [Compound 160]	2800 nM			

Continued, in another order:

EC50 [1]	solubility [2, 3]	solubility [2, 4]	SMILES	other results
290 nM			Cc1ccc(OCc2ccc(C(=O)N(C)C)cc2C)c(-c2csc(N3CCC(C(=O)O)CC3)n2)c1 [Compound 294]	
1800 nM			Cc1cc(C(=O)N2CCCCC2)ccc1COc1ccc(C#N)cc1-c1csc(C2=CCC(C(=O)O)CC2)n1 (stereo not shown) [Compound 184]	
270 nM			COCCN(C)C(=O)c1ccc(COc2ccc(C)cc2-c2csc(N3CCC(C(=O)O)CC3)n2)c(C#N)c1 [Compound 178]	
83 nM			Cc1ccc(OCc2ccc(CN3CCN(C(=O)C(C)(C)C)CC3)cc2C)c(-c2csc(N3CCC(C(=O)O)CC3)n2)c1 [Compound 195]	
170 nM			Cc1ccc(OCc2ccc(CN3CCOCC3)cc2C)c(-c2csc(N3CCC(C(=O)O)CC3C)n2)c1 (stereo not shown) [Compound 177]	
150 nM			CCC(=O)N1CCN(Cc2ccc(COc3ccc(C)cc3-c3csc(N4CCC(C(=O)O)CC4)n3)c(C)c2)CC1 [Compound 194]	
160 nM			Cc1ccc(OCc2ccc(CN3CCOCC3)cc2C)c(-c2csc(N3CC[C@H](C(=O)O)[C@H](C)C3)n2)c1 [Compound 176]	
2500 nM			Cc1cc(CN2CCOCC2)ccc1COc1ccc(F)cc1-c1csc(C2CCC(C(=O)O)CC2)n1 (stereo not shown) [Compound 190]	
4400 nM			Cc1cc(C(=O)N2CCCCC2)ccc1COc1ccc(C#N)cc1-c1csc([C@H]2CC[C@H](C(=O)O)CC2)n1 [Compound 183]	
830 nM			Cc1cc(CN2CCOCC2)ccc1COc1ccc(Cl)cc1-c1csc(C2=CCC(C(=O)O)CC2)n1 (stereo not shown) [Compound 188]	
9000 nM			Cc1cc(CN2CCOCC2)ccc1COc1ccc(C#N)cc1-c1csc(C2=CCC(C(=O)O)CC2)n1 (stereo not shown) [Compound 189]	
530 nM			Cc1cc(CN2CCOCC2)ccc1COc1ccc(F)cc1-c1csc(C2=CCC(C(=O)O)CC2)n1 (stereo not shown) [Compound 191]	
2700 nM			Cc1cc(CN2CCOCC2)ccc1COc1ccccc1-c1csc(N2CCC(C(=O)O)C(C(F)(F)F)C2)n1 (stereo not shown) [Compound 185]	
1600 nM			Cc1cc(C(=O)N2CCCCC2)ccc1COc1ccc(Cl)cc1-c1csc(C2CCC(C(=O)O)CC2)n1 (stereo not shown) [Compound 182]	
	32 µg/mL (≈ 54.3 µM)	41 µg/mL (≈ 69.5 µM)	Cc1ccc(OCc2ccc(CN3CCOCC3)cc2C)c(-c2csc(N3CCC(C(=O)O)C(C(F)(F)F)C3)n2)c1 (stereo not shown) [Compound 213]	
	0.45 µg/mL (≈ 0.747 µM)		CCc1cc(C(=O)N2CCN(C)C(=O)C2)ccc1COc1ccc(C)cc1-c1csc(N2C[C@H]3CC[C@@H](C2)[C@H]3C(=O)O)n1 [Compound 295]	solubility ([2]; pH 6.8, aqueous buffer, Solubility (pH 6.8), pH 6.8): 60 µg/mL (≈ 99.5 µM)
390 nM			Cc1cc(CN2CCOCC2)ccc1COc1ccc(Cl)cc1-c1csc(N2CC3C(C2)C3C(=O)O)n1 (stereo not shown) [Compound 187]	
2400 nM			Cc1cc(CN2CCOCC2)ccc1COc1ccccc1-c1csc(C2=CCC(C(=O)O)CC2)n1 (stereo not shown) [Compound 193]	
